Source: patent publication US20210038602A1, “COMBINATION TREATMENT OF ACUTE MYELOID LEUKEMIA” (Boehringer Ingelheim International GmbH, priority 2018, published 2021)

Tested on: AML cell line MV-4-11B
Test: IncuCyte live cell imaging assay: cell growth (confluence) and apoptosis (Caspase-3/7 green fluorescence) over time
Assay type: cell-based
Details: MV-4-11B cells, single compound treatment, vs DMSO control
Protocol: The analysis is done by the Essen BioScience IncuCyte™ FLR live cell imaging system. It enables observation and quantification of cell behavior over time by automatically gathering and analyzing images around the clock. This live-cell, non-perturbating imaging approach yields kinetic data, all generated within the controlled environment of a standard cell incubator.
MV-4-11B is the AML cell line MV-4-11 from ATCC (CRL-9591) which has achieved a mutation in TP53 (c.742C>T, p.R248W, heterozygous for TP53). MV-4-11B cells were grown in T-75 flasks using RPMI1640 medium supplemented with 10% fetal calf serum and 50 μM mercaptoethanol. Cultures were incubated at 37° C. and 5% CO2 in a humidified atmosphere.
For the IncuCyte live cell imaging assays, cells were plated in 96 well plates, Poly-D-Lysine coated, and were incubated with the respective compounds (BET inhibitor 1-12, volasertib), either alone or in combination. For the detection of apoptotic cells, the Essen BioSciences CellPlayer™ 96 well Kinetic Caspase-3/7 Reagent was added.
To determine cell proliferation, “confluence” (area covered with cells in the wells) was used as readout, to determine the amount of apoptosis (dead cells), the intensity of green fluorescence was used as readout.

Question: What does the source list for CC[C@@H]1C(=O)N(C)c2cnc(Nc3ccc(C(=O)N[C@H]4CC[C@H](N5CCN(CC6CC6)CC5)CC4)cc3OC)nc2N1C(C)C [volasertib, N-[trans-4-[4-(cyclopropylmethyl)-1-piperazinyl]cyclohexyl]-4-[[(7R)-7-ethyl-5,6,7,8-tetrahydro-5-methyl-8-(1-methylethyl)-6-oxo-2-pteridinyl]amino]-3-methoxy-benzamide]?
Answer: Cell growth (confluence) (over time (FIGS. 1-12 a)): reduced in comparison to DMSO control treated cells; Apoptosis (Caspase-3/7 green fluorescence) (over time (FIGS. 1-12 b)): increased in comparison to DMSO control treated cells
